Tests used:
Experiment in all cases: KINOMEscan competition binding
Settings in all cases: compound 10.0 µM
[1] = tested on: ABL1 (human), P00519 [F317I]
[2] = tested on: ABL1 (human), P00519 [F317L]
[3] = tested on: BMX (human), P51813 [V600E]
[4] = tested on: EGFR (human), P00533 [A750P; 747-749 del]
[5] = tested on: EGFR (human), P00533 [G719C]
[6] = tested on: EGFR (human), P00533 [L858R]
[7] = tested on: FGFR3 (human), P22607 [G697C]
[8] = tested on: FLT3 (human), P36888 [D835Y]
[9] = tested on: KIT (human), P10721 [A829P]
[10] = tested on: LRRK2 (human), Q5S007 [G2019S]
[11] = tested on: MET (human), P08581 [M1250T]
[12] = tested on: PIK3CA (human), P42336 [E542K]
PIK3CA (human), P42336 [E542K], sequence (P42336 whole entry E542K, looked up): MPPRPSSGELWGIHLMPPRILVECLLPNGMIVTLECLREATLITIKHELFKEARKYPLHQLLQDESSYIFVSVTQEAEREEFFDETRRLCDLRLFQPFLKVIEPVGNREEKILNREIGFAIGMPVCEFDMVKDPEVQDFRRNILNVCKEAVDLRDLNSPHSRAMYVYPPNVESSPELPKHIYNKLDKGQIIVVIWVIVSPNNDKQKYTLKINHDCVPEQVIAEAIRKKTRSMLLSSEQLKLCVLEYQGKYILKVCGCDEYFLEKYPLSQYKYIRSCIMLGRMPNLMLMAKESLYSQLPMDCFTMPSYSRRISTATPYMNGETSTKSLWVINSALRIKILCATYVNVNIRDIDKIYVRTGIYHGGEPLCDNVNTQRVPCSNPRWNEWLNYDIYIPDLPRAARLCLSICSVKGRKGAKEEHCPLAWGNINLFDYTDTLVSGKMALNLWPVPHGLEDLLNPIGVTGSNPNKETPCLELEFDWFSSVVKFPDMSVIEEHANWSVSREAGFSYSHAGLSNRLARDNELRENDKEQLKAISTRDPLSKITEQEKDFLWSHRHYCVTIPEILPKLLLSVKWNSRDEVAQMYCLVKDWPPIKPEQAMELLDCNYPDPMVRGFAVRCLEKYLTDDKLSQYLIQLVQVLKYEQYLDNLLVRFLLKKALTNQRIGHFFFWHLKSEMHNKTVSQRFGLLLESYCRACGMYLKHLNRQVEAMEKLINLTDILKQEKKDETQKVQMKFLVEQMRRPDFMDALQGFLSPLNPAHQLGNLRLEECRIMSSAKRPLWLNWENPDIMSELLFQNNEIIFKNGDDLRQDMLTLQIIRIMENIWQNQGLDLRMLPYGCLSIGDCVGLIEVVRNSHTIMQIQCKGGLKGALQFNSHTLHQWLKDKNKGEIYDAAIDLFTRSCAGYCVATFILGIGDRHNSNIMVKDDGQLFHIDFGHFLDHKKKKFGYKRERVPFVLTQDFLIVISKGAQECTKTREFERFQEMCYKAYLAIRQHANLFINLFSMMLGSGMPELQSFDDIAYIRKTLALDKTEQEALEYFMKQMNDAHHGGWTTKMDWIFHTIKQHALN

[13] = tested on: PIK3CA (human), P42336 [H1047L]
PIK3CA (human), P42336 [H1047L], sequence (P42336 whole entry H1047L, looked up): as the sequence (P42336 whole entry E542K, looked up) above, with K542E, H1047L counted along it

[14] = tested on: RET (human), P07949 [V804L]
RET (human), P07949 [V804L], sequence (P07949 whole entry V804L, looked up): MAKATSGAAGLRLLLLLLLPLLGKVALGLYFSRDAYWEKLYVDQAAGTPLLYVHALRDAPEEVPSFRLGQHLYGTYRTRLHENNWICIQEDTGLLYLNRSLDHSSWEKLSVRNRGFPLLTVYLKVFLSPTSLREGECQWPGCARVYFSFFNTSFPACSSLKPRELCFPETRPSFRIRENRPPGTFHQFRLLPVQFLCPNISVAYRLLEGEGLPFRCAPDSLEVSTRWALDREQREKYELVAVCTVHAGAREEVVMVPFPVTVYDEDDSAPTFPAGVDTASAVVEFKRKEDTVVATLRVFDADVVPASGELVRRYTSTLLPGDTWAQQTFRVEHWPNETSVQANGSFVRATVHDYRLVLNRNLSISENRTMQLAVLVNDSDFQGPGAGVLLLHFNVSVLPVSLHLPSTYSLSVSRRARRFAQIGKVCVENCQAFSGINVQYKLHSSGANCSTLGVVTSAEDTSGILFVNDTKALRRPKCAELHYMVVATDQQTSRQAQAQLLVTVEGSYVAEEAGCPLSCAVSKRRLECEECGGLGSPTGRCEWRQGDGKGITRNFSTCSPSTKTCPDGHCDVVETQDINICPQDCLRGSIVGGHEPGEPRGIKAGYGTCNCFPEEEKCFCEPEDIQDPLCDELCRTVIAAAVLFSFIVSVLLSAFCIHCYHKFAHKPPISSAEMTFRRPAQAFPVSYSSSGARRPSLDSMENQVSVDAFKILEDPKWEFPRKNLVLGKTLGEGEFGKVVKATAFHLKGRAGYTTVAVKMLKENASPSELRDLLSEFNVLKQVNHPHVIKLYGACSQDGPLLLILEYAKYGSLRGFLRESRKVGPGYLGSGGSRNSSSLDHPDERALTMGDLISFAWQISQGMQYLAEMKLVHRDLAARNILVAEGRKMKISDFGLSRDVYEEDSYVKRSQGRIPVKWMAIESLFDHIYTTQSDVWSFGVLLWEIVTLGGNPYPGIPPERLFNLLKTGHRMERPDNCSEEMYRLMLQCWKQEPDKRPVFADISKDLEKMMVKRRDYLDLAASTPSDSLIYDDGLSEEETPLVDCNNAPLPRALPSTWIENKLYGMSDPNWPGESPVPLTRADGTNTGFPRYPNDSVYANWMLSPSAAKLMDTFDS

[15] = tested on: PIK3CA (human), P42336 [M1043I]
PIK3CA (human), P42336 [M1043I], sequence (P42336 whole entry M1043I, looked up): as the sequence (P42336 whole entry E542K, looked up) above, with K542E, M1043I counted along it

BMX (human), P51813 [V600E], sequence (P51813 whole entry, looked up, stated change not applied): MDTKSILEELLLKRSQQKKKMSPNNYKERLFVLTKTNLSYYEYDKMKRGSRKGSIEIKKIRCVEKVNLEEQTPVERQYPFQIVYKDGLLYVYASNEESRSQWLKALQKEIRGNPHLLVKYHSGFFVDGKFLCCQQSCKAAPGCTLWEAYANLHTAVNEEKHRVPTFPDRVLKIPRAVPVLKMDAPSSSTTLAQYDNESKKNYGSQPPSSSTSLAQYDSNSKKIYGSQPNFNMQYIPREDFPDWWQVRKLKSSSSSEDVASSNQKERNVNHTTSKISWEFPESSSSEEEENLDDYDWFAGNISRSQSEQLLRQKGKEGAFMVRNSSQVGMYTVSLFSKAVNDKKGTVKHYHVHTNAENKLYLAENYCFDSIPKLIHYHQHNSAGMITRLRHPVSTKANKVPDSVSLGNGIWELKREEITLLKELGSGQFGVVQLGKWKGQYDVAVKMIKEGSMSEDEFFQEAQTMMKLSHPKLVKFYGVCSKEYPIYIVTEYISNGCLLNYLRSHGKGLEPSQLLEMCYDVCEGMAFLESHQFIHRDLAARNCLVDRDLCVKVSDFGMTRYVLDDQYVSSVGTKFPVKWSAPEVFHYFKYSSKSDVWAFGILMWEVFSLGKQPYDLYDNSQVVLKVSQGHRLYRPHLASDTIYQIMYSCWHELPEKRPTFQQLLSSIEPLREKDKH
ABL1 (human), P00519 [F317I], sequence (P00519 whole entry F317I, looked up): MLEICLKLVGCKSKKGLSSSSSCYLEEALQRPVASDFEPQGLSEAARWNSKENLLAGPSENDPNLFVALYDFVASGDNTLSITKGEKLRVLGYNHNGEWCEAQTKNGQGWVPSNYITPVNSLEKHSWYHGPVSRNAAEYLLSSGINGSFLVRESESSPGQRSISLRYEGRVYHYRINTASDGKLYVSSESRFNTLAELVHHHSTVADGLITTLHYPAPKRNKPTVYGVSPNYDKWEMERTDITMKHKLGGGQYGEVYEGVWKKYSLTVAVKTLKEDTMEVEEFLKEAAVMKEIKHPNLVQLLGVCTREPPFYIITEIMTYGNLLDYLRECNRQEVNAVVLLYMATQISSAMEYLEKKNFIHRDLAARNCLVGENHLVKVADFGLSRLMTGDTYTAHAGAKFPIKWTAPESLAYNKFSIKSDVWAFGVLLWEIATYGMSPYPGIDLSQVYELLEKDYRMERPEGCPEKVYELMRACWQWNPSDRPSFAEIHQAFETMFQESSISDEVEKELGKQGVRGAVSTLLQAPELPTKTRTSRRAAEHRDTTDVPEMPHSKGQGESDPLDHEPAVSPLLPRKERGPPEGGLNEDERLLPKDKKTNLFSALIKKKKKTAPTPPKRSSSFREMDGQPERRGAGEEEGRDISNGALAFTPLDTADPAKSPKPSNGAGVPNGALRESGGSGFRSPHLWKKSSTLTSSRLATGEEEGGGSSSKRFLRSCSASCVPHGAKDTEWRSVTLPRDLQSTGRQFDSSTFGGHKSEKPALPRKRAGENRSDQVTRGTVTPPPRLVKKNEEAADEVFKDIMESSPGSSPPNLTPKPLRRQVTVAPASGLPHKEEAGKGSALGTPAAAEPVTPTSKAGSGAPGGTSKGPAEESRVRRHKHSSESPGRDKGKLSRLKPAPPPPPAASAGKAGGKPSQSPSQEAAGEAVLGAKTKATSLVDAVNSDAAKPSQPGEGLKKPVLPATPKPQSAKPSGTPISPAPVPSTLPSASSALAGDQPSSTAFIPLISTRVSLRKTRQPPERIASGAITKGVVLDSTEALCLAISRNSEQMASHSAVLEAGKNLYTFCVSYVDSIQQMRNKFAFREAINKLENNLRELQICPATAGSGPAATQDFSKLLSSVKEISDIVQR
ABL1 (human), P00519 [F317L], sequence (P00519 whole entry F317L, looked up): as the sequence (P00519 whole entry F317I, looked up) above, with I317L counted along it
FGFR3 (human), P22607 [G697C], sequence (P22607 whole entry G697C, looked up): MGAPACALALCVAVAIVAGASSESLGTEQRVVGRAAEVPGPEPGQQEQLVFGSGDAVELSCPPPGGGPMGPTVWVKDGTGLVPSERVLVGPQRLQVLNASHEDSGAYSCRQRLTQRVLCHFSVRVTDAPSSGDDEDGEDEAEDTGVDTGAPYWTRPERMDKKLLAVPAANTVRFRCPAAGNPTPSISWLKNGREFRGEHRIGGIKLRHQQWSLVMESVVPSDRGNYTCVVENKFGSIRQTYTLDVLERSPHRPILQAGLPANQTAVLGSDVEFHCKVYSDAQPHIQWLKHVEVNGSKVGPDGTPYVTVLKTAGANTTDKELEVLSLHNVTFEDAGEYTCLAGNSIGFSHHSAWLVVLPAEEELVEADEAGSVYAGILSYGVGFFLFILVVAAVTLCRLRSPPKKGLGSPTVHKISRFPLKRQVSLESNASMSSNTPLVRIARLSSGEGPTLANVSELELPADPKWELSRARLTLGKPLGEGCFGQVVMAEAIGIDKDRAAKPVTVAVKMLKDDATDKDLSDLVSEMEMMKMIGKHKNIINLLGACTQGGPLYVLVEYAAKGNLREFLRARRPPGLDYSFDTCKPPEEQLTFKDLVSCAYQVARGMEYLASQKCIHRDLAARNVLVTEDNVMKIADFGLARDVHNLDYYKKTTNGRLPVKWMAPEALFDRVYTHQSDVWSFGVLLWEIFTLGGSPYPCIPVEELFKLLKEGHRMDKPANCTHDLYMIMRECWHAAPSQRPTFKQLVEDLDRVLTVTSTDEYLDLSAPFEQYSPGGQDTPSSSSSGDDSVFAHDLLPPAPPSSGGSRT

Row | kinase still bound, per cent of control [1] | kinase still bound, per cent of control [2] | kinase still bound, per cent of control [3] | kinase still bound, per cent of control [4] | kinase still bound, per cent of control [5] | kinase still bound, per cent of control [6] | kinase still bound, per cent of control [7] | kinase still bound, per cent of control [8] | kinase still bound, per cent of control [9] | kinase still bound, per cent of control [10] | kinase still bound, per cent of control [11] | kinase still bound, per cent of control [12] | kinase still bound, per cent of control [13] | kinase still bound, per cent of control [14] | kinase still bound, per cent of control [15] | Structure (SMILES)
1 | 100% | 70% | 92% | 50% | 94% | 47% | 26% | 26% | 57% | 60% | 31% | 100% | 73% | 24% |  | COc1cc2ncn(-c3cc(OCc4ccccc4C(F)(F)F)c(C(N)=O)s3)c2cc1OC
2 | 55% | 100% | 56% | 100% |  | 100% | 79% |  | 72% | 41% | 100% | 100% | 100% | 64% | 100% | N#CCNC(=O)c1ccc(-c2ccnc(Nc3ccc(N4CCOCC4)cc3)n2)cc1
3 | 100% | 100% | 88% | 100% |  | 100% |  | 16% |  | 99% | 79% | 1% | 2.6% | 66% | 8.6% | CCC(=O)N1CCN(c2ccc(-n3c(=O)ccc4cnc5ccc(-c6cnc7ccccc7c6)cc5c43)cc2C(F)(F)F)CC1
4 | 100% | 100% | 100% | 100% | 100% | 100% | 1.3% | 100% |  |  | 100% | 100% | 100% | 100% | 100% | CCN(CC)CCCCNc1ncc2c(n1)N(C)C(=O)N(c1c(Cl)c(OC)cc(OC)c1Cl)C2
5 | 100% | 100% | 100% | 100% | 100% | 100% | 100% | 19% |  |  | 100% | 100% | 100% | 100% | 100% | OCCCNc1cc(-c2ccnc(Nc3cccc(Cl)c3)n2)ccn1

Source: the kinase profiling compilation of Christmann-Franck et al. (2016)
